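These data come from cells grown in 96-well plates and exposed to compound for 48 hours at five concentrations. TGI: total growth inhibition.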
Assays:
Assay in all cases: growth of human tumour cells (NCI), 48 h
A498 renal = tested on: A498 renal
HL-60(TB) leukemia = tested on: HL-60(TB) leukemia
HOP-62 NSCLC = tested on: HOP-62 NSCLC
HOP-92 NSCLC = tested on: HOP-92 NSCLC
HS 578T breast = tested on: HS 578T breast
KM12 colon = tested on: KM12 colon
LOX IMVI melanoma = tested on: LOX IMVI melanoma
M14 melanoma = tested on: M14 melanoma
MDA-MB-231 breast = tested on: MDA-MB-231 breast
MOLT-4 leukemia = tested on: MOLT-4 leukemia
NCI/ADR-RES ovarian = tested on: NCI/ADR-RES ovarian
OVCAR-3 ovarian = tested on: OVCAR-3 ovarian
OVCAR-8 ovarian = tested on: OVCAR-8 ovarian
PC-3 prostate = tested on: PC-3 prostate
RPMI-8226 leukemia = tested on: RPMI-8226 leukemia
SK-MEL-28 melanoma = tested on: SK-MEL-28 melanoma
SNB-19 CNS = tested on: SNB-19 CNS
SNB-75 CNS = tested on: SNB-75 CNS
T-47D breast = tested on: T-47D breast

SMILES | TGI (A498 renal) [µM] | TGI (HL-60(TB) leukemia) [µM] | TGI (HOP-62 NSCLC) [µM] | TGI (HOP-92 NSCLC) [µM] | TGI (HS 578T breast) [µM] | TGI (KM12 colon) [µM] | TGI (LOX IMVI melanoma) [µM] | TGI (M14 melanoma) [µM] | TGI (MDA-MB-231 breast) [µM] | TGI (MOLT-4 leukemia) [µM] | TGI (NCI/ADR-RES ovarian) [µM] | TGI (OVCAR-3 ovarian) [µM] | TGI (OVCAR-8 ovarian) [µM] | TGI (PC-3 prostate) [µM] | TGI (RPMI-8226 leukemia) [µM] | TGI (SK-MEL-28 melanoma) [µM] | TGI (SNB-19 CNS) [µM] | TGI (SNB-75 CNS) [µM] | TGI (T-47D breast) [µM]
CN(C)CCCCN1c2ccccc2Sc2cc(N=[N+]=[N-])ccc21 | 22.4 | 3.94 | 5.22 | 10.5 | 9.83 | 3.17 | 3.06 | 3.08 | 3.12 | 4.3 | 4.07 | 3.59 | 3.38 | 4.22 | 6.06 | 3.3 | 19.9 | 4.8 | 4.86
CN(/N=C/c1ccccn1)C1=NCCCCN1 | > 100 | > 100 | > 100 | > 100 | > 100 | > 100 | > 100 | > 100 | > 100 | > 100 | > 100 | > 100 | > 100 | > 100 | > 100 | > 100 | > 100 | > 100 | > 100
O=C1c2c(ccc3c2CCC3)CC12Cc1cc3c(cc1C2)CCC3 | > 100 | > 100 | > 100 | > 100 | > 100 | > 100 | > 100 | > 100 | > 100 | > 100 | > 100 | > 100 | > 100 | > 100 | > 100 | > 100 | > 100 | > 100 | > 100
Nc1cn(Cc2ccccc2)c2nc(/C=C3/C=CC=CC3=O)c(O)n12 | > 100 | > 100 | > 100 | > 100 | > 100 | > 100 | > 100 | > 100 | > 100 | > 100 | > 100 | > 100 | > 100 | > 100 | > 100 | > 100 | > 100 | > 100 | > 100
NC(N)=N/N=C/c1c(-c2ccc([N+](=O)[O-])cc2)nc2n1CCS2 | 42 | 25.1 | 61.5 | 40.5 | 39.1 | 21.7 | 35 | 30.2 | 16 | > 33 | > 100 | 41.3 | 29.2 | 27.7 | > 63.3 | 34.8 | 11.4 | 14.5 | 16.3
COC(=O)C1=Cc2cc(OC)c(O)cc2[C@@H](c2ccc(O)c(OC)c2)[C@@H]1C(=O)OC | > 100 | > 100 | > 100 | > 100 | > 100 | > 100 | > 100 | > 100 | > 100 | > 100 | > 100 | > 100 | > 100 | > 100 | > 100 | > 100 | > 100 | > 100 | > 100
